Source: publication PMC5218480 (PLoS ONE, 2017)

Test system: MV-4-11 cells
Assay: Gene expression microarray analysis (Affymetrix PrimeView) and GSEA
Assay type: cell-based, human
Set-up: RFU PODN (11730768_x_at) / Fold change /veh PODN (11730768_x_at) / RFU LINC00158 (11744669_a_at) / Fold change /veh LINC00158 (11744669_a_at) / RFU DUSP10 (11751237_a_at) / Fold change /veh DUSP10 (11751237_a_at) / RFU ID3 (11757404_x_at) / Fold change /veh ID3 (11757404_x_at) / RFU PLEKHG5 (11737974_s_at) / Fold change /veh PLEKHG5 (11737974_s_at) / RFU LRRC4B (11730491_at) / Fold change /veh LRRC4B (11730491_at) / RFU GIMAP4 (11747438_a_at) / Fold change /veh GIMAP4 (11747438_a_at) / RFU KRT8 (11758183_x_at) / Fold change /veh KRT8 (11758183_x_at) / RFU CNN1 (11734310_a_at) / Fold change /veh CNN1 (11734310_a_at) / RFU VPS37D (11726825_at) / Fold change /veh VPS37D (11726825_at) / RFU C10orf10 (11716522_x_at) / Fold change /veh C10orf10 (11716522_x_at) / RFU KIR2DL2 /// KIR2DL4 /// KIR2DL5A /// KIR2DL5B /// KIR2DS1 /// KIR2DS2 /// KIR2DS3 /// KIR2DS4 /// KIR3DL3 /// KIR3DL3 /// KIR3DS1 (11738374_at) / Fold change /veh KIR2DL2 /// KIR2DL4 /// KIR2DL5A /// KIR2DL5B /// KIR2DS1 /// KIR2DS2 /// KIR2DS3 /// KIR2DS4 /// KIR3DL3 /// KIR3DL3 /// KIR3DS1 (11738374_at) / RFU C1QL1 (11718748_at) / Fold change /veh C1QL1 (11718748_at) / RFU TMPRSS4 (11747572_a_at) / Fold change /veh TMPRSS4 (11747572_a_at) / RFU HAMP (11756126_x_at) / Fold change /veh HAMP (11756126_x_at) / RFU RNFT2 (11725882_a_at) / Fold change /veh RNFT2 (11725882_a_at) / RFU NR4A2 (11747474_a_at) / Fold change /veh NR4A2 (11747474_a_at) / RFU ABCC12 (11746883_a_at) / Fold change /veh ABCC12 (11746883_a_at) / RFU TMEM136 (11760407_x_at) / Fold change /veh TMEM136 (11760407_x_at) / RFU CLDN22 /// WWC2 (11732394_at) / Fold change /veh CLDN22 /// WWC2 (11732394_at) / RFU HLA-DPB1 (11760878_x_at) / Fold change /veh HLA-DPB1 (11760878_x_at) / RFU SPINT1 (11716480_a_at) / Fold change /veh SPINT1 (11716480_a_at) / RFU GAP43 (11754022_s_at) / Fold change /veh GAP43 (11754022_s_at) / RFU A4GNT (11735810_at) / Fold change /veh A4GNT (11735810_at) / RFU PRB3 (11715151_x_at) / Fold change /veh PRB3 (11715151_x_at) / RFU TUBB4B (11761932_at) / Fold change /veh TUBB4B (11761932_at) / RFU CAPN14 (11732068_a_at) / Fold change /veh CAPN14 (11732068_a_at) / RFU TMCC2 (11721928_a_at) / Fold change /veh TMCC2 (11721928_a_at) / RFU IRGQ (11745062_a_at) / Fold change /veh IRGQ (11745062_a_at) / RFU FAM174B (11720279_a_at) / Fold change /veh FAM174B (11720279_a_at) / RFU TMPRSS4 (11748680_a_at) / Fold change /veh TMPRSS4 (11748680_a_at) / RFU FAM212B (11763350_a_at) / Fold change /veh FAM212B (11763350_a_at) / RFU PLEKHG5 (11743358_a_at) / Fold change /veh PLEKHG5 (11743358_a_at) / RFU ZSCAN30 (11745921_a_at) / Fold change /veh ZSCAN30 (11745921_a_at) / RFU CMKLR1 (11741424_a_at) / Fold change /veh CMKLR1 (11741424_a_at) / RFU LOC101060620 /// MAPK8IP1 (11723275_at) / Fold change /veh LOC101060620 /// MAPK8IP1 (11723275_at) / RFU SPTSSB (11747773_x_at) / Fold change /veh SPTSSB (11747773_x_at) / RFU PRSS12 (11739890_at) / Fold change /veh PRSS12 (11739890_at) / RFU BIN1 (11741810_x_at) / Fold change /veh BIN1 (11741810_x_at) / RFU WNT11 (11732464_a_at) / Fold change /veh WNT11 (11732464_a_at) / RFU C10orf10 (11716521_a_at) / Fold change /veh C10orf10 (11716521_a_at) / RFU C5orf56 (11738089_at) / Fold change /veh C5orf56 (11738089_at) / RFU CYB561 (11721691_x_at) / Fold change /veh CYB561 (11721691_x_at) / RFU ANKRD19P (11752326_a_at) / Fold change /veh ANKRD19P (11752326_a_at) / RFU OR2T12 /// OR2T33 /// OR2T8 (11738714_s_at) / Fold change /veh OR2T12 /// OR2T33 /// OR2T8 (11738714_s_at) / RFU VCAN (11748164_a_at) / Fold change /veh VCAN (11748164_a_at) / RFU JSRP1 (11732532_at) / Fold change /veh JSRP1 (11732532_at) / RFU KRTAP10-11 (11738290_x_at) / Fold change /veh KRTAP10-11 (11738290_x_at) / RFU MYO3A (11730013_a_at) / Fold change /veh MYO3A (11730013_a_at) / RFU EBF3 (11725865_a_at) / Fold change /veh EBF3 (11725865_a_at) / RFU CAMK2N1 (11719241_x_at) / Fold change /veh CAMK2N1 (11719241_x_at) / RFU C5orf56 (11738088_a_at) / Fold change /veh C5orf56 (11738088_a_at) / RFU OLFML3 (11715873_a_at) / Fold change /veh OLFML3 (11715873_a_at) / RFU LOC100653217 /// NTM (11731650_a_at) / Fold change /veh LOC100653217 /// NTM (11731650_a_at) / RFU MAPK11 (11762145_a_at) / Fold change /veh MAPK11 (11762145_a_at) / RFU FIZ1 (11724087_x_at) / Fold change /veh FIZ1 (11724087_x_at) / RFU OASL (11726364_x_at) / Fold change /veh OASL (11726364_x_at) / RFU SOX15 (11748057_x_at) / Fold change /veh SOX15 (11748057_x_at) / RFU CD79A (11719716_a_at) / Fold change /veh CD79A (11719716_a_at) / RFU HIST1H1D (11736915_at) / Fold change /veh HIST1H1D (11736915_at) / RFU CASKIN2 (11723855_a_at) / Fold change /veh CASKIN2 (11723855_a_at) / RFU LOC730098 (11760151_x_at) / Fold change /veh LOC730098 (11760151_x_at) / RFU OR4N2 (11742367_at) / Fold change /veh OR4N2 (11742367_at) / RFU PRRT2 (11749266_a_at) / Fold change /veh PRRT2 (11749266_a_at) / RFU SNX32 (11753110_a_at) / Fold change /veh SNX32 (11753110_a_at) / RFU CDHR5 (11726645_a_at) / Fold change /veh CDHR5 (11726645_a_at) / RFU RCAN1 (11760418_a_at) / Fold change /veh RCAN1 (11760418_a_at) / RFU FAM167A (11723789_a_at) / Fold change /veh FAM167A (11723789_a_at) / RFU FAM26E (11764081_at) / Fold change /veh FAM26E (11764081_at) / RFU ISYNA1 (11749810_s_at) / Fold change /veh ISYNA1 (11749810_s_at) / RFU ACY1 (11761880_at) / Fold change /veh ACY1 (11761880_at) / RFU 11764098_at / Fold change /veh 11764098_at / RFU SAMD14 (11745864_x_at) / Fold change /veh SAMD14 (11745864_x_at) / RFU NPB (11741838_a_at) / Fold change /veh NPB (11741838_a_at) / RFU TMPRSS6 (11731388_a_at) / Fold change /veh TMPRSS6 (11731388_a_at) / RFU KRTAP10-2 (11738614_at) / Fold change /veh KRTAP10-2 (11738614_at) / RFU ARHGAP8 /// PRR5-ARHGAP8 (11727945_x_at) / Fold change /veh ARHGAP8 /// PRR5-ARHGAP8 (11727945_x_at) / RFU KRTAP5-7 /// NADSYN1 (11734609_at) / Fold change /veh KRTAP5-7 /// NADSYN1 (11734609_at) / RFU RASL12 (11751679_a_at) / Fold change /veh RASL12 (11751679_a_at) / RFU CDKN2B (11736163_a_at) / Fold change /veh CDKN2B (11736163_a_at) / RFU PRF1 (11729649_at) / Fold change /veh PRF1 (11729649_at) / RFU, ZNF638 /// ZNF638-IT1 / Fold change vs veh, ZNF638 /// ZNF638-IT1 / RFU, PANK3 / Fold change vs veh, PANK3 / RFU, SH3YL1 / Fold change vs veh, SH3YL1 / RFU, ZEB2 / Fold change vs veh, ZEB2 / RFU, NRIP1 / Fold change vs veh, NRIP1 / RFU, PTTG1IP / Fold change vs veh, PTTG1IP / RFU, CAPN2 / Fold change vs veh, CAPN2 / RFU, MED14 / Fold change vs veh, MED14 / RFU, SNORA58 / Fold change vs veh, SNORA58 / RFU, C1orf63 / Fold change vs veh, C1orf63 / RFU, LRRFIP1 / Fold change vs veh, LRRFIP1 / RFU, NDUFAF7 / Fold change vs veh, NDUFAF7 / RFU, SLC12A2 / Fold change vs veh, SLC12A2 / RFU, IBTK / Fold change vs veh, IBTK / RFU, ESF1 / Fold change vs veh, ESF1 / Fold change vs veh, TMEM50B / RFU, TAOK1 / Fold change vs veh, TAOK1 / RFU, ACBD3 / Fold change vs veh, ACBD3 / RFU, TMA16 / Fold change vs veh, TMA16 / RFU, RWDD3 / Fold change vs veh, RWDD3 / RFU, BCAT1 / Fold change vs veh, BCAT1 / RFU, EDEM3 / Fold change vs veh, EDEM3 / RFU, TMEM33 / Fold change vs veh, TMEM33 / RFU, WDR75 / Fold change vs veh, WDR75 / RFU, AHCTF1 / Fold change vs veh, AHCTF1 / RFU, TFRC / Fold change vs veh, TFRC / RFU, ZDHHC17 / Fold change vs veh, ZDHHC17 / RFU, NOM1 / Fold change vs veh, NOM1 / RFU, ARL8B / Fold change vs veh, ARL8B / RFU, ZBTB11 / Fold change vs veh, ZBTB11 / RFU, TAMM41 / Fold change vs veh, TAMM41 / RFU, KIAA1704 /// LOC100996395 / Fold change vs veh, KIAA1704 /// LOC100996395 / RFU, ING1 / Fold change vs veh, ING1 / RFU, TRMT61B / Fold change vs veh, TRMT61B / RFU, FUBP3 / Fold change vs veh, FUBP3 / RFU, TP53 / Fold change vs veh, TP53 / RFU, TNKS2 / Fold change vs veh, TNKS2 / RFU, ZFP14 / Fold change vs veh, ZFP14 / RFU, ACTR2 / Fold change vs veh, ACTR2 / RFU, PPP3R1 / Fold change vs veh, PPP3R1 / RFU, PIK3R1 / Fold change vs veh, PIK3R1 / RFU, HNRNPA1 / Fold change vs veh, HNRNPA1 / RFU, RNF170 / Fold change vs veh, RNF170 / RFU, ZNF28 / Fold change vs veh, ZNF28 / RFU, RNGTT / Fold change vs veh, RNGTT / RFU, OGT / Fold change vs veh, OGT / RFU, BRD1 / Fold change vs veh, BRD1 / RFU, MARS / Fold change vs veh, MARS / RFU, ZNF655 / Fold change vs veh, ZNF655 / RFU, FAHD1 / Fold change vs veh, FAHD1 / RFU, BDP1 / Fold change vs veh, BDP1 / RFU, LRRCC1 / Fold change vs veh, LRRCC1 / RFU, ARID1A / Fold change vs veh, ARID1A / RFU, ZNF146 / Fold change vs veh, ZNF146 / RFU, ZNF330 / Fold change vs veh, ZNF330 / RFU, GPN3 / Fold change vs veh, GPN3 / RFU, C9orf123 / Fold change vs veh, C9orf123 / RFU, N4BP2L2 / Fold change vs veh, N4BP2L2 / RFU, ARFIP1 / Fold change vs veh, ARFIP1 / RFU, FAM179B / Fold change vs veh, FAM179B / RFU, BCL10 / Fold change vs veh, BCL10 / RFU, UHRF1BP1L / Fold change vs veh, UHRF1BP1L / RFU, BET1 / Fold change vs veh, BET1 / RFU, CNOT2 / Fold change vs veh, CNOT2 / RFU, ZNF268 / Fold change vs veh, ZNF268 / Fold change vs veh, ZNF507 / RFU, DGCR2 / Fold change vs veh, DGCR2 / RFU, WDSUB1 / Fold change vs veh, WDSUB1 / Fold change vs veh, HSP90B1 /// MIR3652 / RFU, ADSS / Fold change vs veh, ADSS / RFU, GK / Fold change vs veh, GK / RFU, ZNF148 / Fold change vs veh, ZNF148 / RFU, TAF9 / Fold change vs veh, TAF9 / RFU, SLC1A5 / Fold change vs veh, SLC1A5 / RFU, SLMO2 / Fold change vs veh, SLMO2 / RFU, ABCC4 / Fold change vs veh, ABCC4 / RFU, LOC101060439 /// RAP1B / Fold change vs veh, LOC101060439 /// RAP1B / RFU, RFX7 / Fold change vs veh, RFX7 / RFU, GTPBP10 / Fold change vs veh, GTPBP10 / RFU, CNEP1R1 / Fold change vs veh, CNEP1R1 / RFU, BIVM-ERCC5 /// ERCC5 / Fold change vs veh, BIVM-ERCC5 /// ERCC5 / RFU, ILF3 / Fold change vs veh, ILF3 / RFU 11762660_at / Fold change /veh 11762660_at / RFU VCAN (11757783_s_at) / Fold change /veh VCAN (11757783_s_at) / RFU DDX43 (11728927_at) / Fold change /veh DDX43 (11728927_at) / RFU KRT8 (11758188_x_at) / Fold change /veh KRT8 (11758188_x_at) / RFU NKD1 (11759106_at) / Fold change /veh NKD1 (11759106_at) / RFU SRD5A1 (11742802_a_at) / Fold change /veh SRD5A1 (11742802_a_at) / RFU TPSAB1 /// TPSB2 (11721975_s_at) / Fold change /veh TPSAB1 /// TPSB2 (11721975_s_at) / RFU GSTM3 (11746129_a_at) / Fold change /veh GSTM3 (11746129_a_at) / RFU IL23R (11737362_x_at) / Fold change /veh IL23R (11737362_x_at) / RFU TMEM51 (11727254_a_at) / Fold change /veh TMEM51 (11727254_a_at) / RFU PIWIL2 (11732686_x_at) / Fold change /veh PIWIL2 (11732686_x_at) / RFU ORM1 (11744905_x_at) / Fold change /veh ORM1 (11744905_x_at) / RFU CCDC152 (11743942_at) / Fold change /veh CCDC152 (11743942_at) / RFU ECM1 (11717891_a_at) / Fold change /veh ECM1 (11717891_a_at) / RFU IL23R (11748794_a_at) / Fold change /veh IL23R (11748794_a_at) / RFU TNFAIP8L3 (11732012_x_at) / Fold change /veh TNFAIP8L3 (11732012_x_at) / RFU MBOAT4 (11741988_at) / Fold change /veh MBOAT4 (11741988_at) / RFU 11764193_at / Fold change /veh 11764193_at / RFU TMEM53 (11763286_at) / Fold change /veh TMEM53 (11763286_at) / RFU MAGEB2 (11727129_at) / Fold change /veh MAGEB2 (11727129_at) / RFU TMEM200A (11744735_a_at) / Fold change /veh TMEM200A (11744735_a_at) / RFU CCDC152 (11751479_a_at) / Fold change /veh CCDC152 (11751479_a_at) / RFU FAM211A (11726209_a_at) / Fold change /veh FAM211A (11726209_a_at) / RFU RGS16 (11746705_a_at) / Fold change /veh RGS16 (11746705_a_at) / RFU VCAN (11755009_s_at) / Fold change /veh VCAN (11755009_s_at) / RFU RHOB (11743442_s_at) / Fold change /veh RHOB (11743442_s_at) / RFU RGS16 (11720943_a_at) / Fold change /veh RGS16 (11720943_a_at) / RFU RGS16 (11720944_at) / Fold change /veh RGS16 (11720944_at) / RFU, VPS4B / Fold change vs veh, VPS4B / RFU, CREB1 / Fold change vs veh, CREB1 / RFU, DNAJC13 / Fold change vs veh, DNAJC13 / RFU, GNAQ / Fold change vs veh, GNAQ / RFU, CDK5R1 / Fold change vs veh, CDK5R1 / RFU, ZRANB3 / Fold change vs veh, ZRANB3 / RFU, CUL4A / Fold change vs veh, CUL4A / RFU, CCNY / Fold change vs veh, CCNY / RFU, UFL1 / Fold change vs veh, UFL1 / RFU, COG3 / Fold change vs veh, COG3 / RFU, DIAPH2 / Fold change vs veh, DIAPH2 / RFU, SKA2 / Fold change vs veh, SKA2 / RFU, AFF3 / Fold change vs veh, AFF3 / RFU, LMF1 / Fold change vs veh, LMF1 / RFU, IPO11 / Fold change vs veh, IPO11 / RFU, DFFB / Fold change vs veh, DFFB / RFU, FOXP1 / Fold change vs veh, FOXP1 / RFU, CARD8 / Fold change vs veh, CARD8 / RFU, STRN3 / Fold change vs veh, STRN3 / RFU, ADK / Fold change vs veh, ADK / RFU, RASSF2 / Fold change vs veh, RASSF2 / RFU, WIPF1 / Fold change vs veh, WIPF1 / RFU, LARP1B / Fold change vs veh, LARP1B / RFU, RASA1 / Fold change vs veh, RASA1 / RFU, RB1 / Fold change vs veh, RB1 / RFU, PPFIA1 / Fold change vs veh, PPFIA1 / RFU, MAT2A / Fold change vs veh, MAT2A / RFU, CCT5 / Fold change vs veh, CCT5 / RFU, WDR92 / Fold change vs veh, WDR92 / RFU, CUX1 / Fold change vs veh, CUX1 / RFU, TTC7A / Fold change vs veh, TTC7A / RFU, TMEM135 / Fold change vs veh, TMEM135 / RFU, DEPTOR / Fold change vs veh, DEPTOR / RFU, CPM / Fold change vs veh, CPM / RFU, DNAJB6 / Fold change vs veh, DNAJB6 / RFU, CACNA2D3 / Fold change vs veh, CACNA2D3 / RFU, DTX4 / Fold change vs veh, DTX4 / RFU, TFCP2 / Fold change vs veh, TFCP2 / RFU, GMCL1 /// GMCL1P1 / Fold change vs veh, GMCL1 /// GMCL1P1 / RFU, AEBP2 / Fold change vs veh, AEBP2 / RFU, SNHG1 /// SNORD22 /// SNORD25 /// SNORD26 /// SNORD27 /// SNORD28 /// SNORD29 /// SNORD31 / Fold change vs veh, SNHG1 /// SNORD22 /// SNORD25 /// SNORD26 /// SNORD27 /// SNORD28 /// SNORD29 /// SNORD31 / Fold change (Aza/veh), C12orf56 (ProbeSet 11735607_a_at) / Fold change (ACY-1035/veh), C12orf56 (ProbeSet 11735607_a_at) / Fold change (Aza/veh), FGFR1OP (ProbeSet 11751329_s_at) / Fold change (ACY-1035/veh), FGFR1OP (ProbeSet 11751329_s_at) / Fold change (Aza/veh), VPS36 (ProbeSet 11739960_a_at) / Fold change (ACY-1035/veh), VPS36 (ProbeSet 11739960_a_at) / RFU SYPL1 (11715823_x_at) / Fold change /veh SYPL1 (11715823_x_at) / RFU IGFBP7 (11715501_s_at) / Fold change /veh IGFBP7 (11715501_s_at) / RFU REEP3 (11722064_at) / Fold change /veh REEP3 (11722064_at) / RFU IGLL1 (11728026_x_at) / Fold change /veh IGLL1 (11728026_x_at): dose or concentration left out as unconfirmed
Settings: MV-4-11 cells, 48 hours

**Q.** Which “RFU OR2T12 /// OR2T33 /// OR2T8 (11738714_s_at)” value does the source give for `Nc1ncn([C@@H]2O[C@H](CO)[C@@H](O)[C@H]2O)c(=O)n1` [azacitidine] here?
**A.** 6.40 RFU
